Results published in patent publication US6635641B2 (Agouron Pharmaceuticals, Inc., priority 2000, dated 2003).
Read-outs that look alike come from different tables or passages of the source.

Legend:
[1] = molecular target: T1, phosphorylated VEGF-R2Δ50 (FLVK-P) (Homo sapiens, UniProt P35968, DEL940-989/E990V); test: VEGF-R2 coupled spectrophotometric assay, phosphorylated construct (FLVK-P); format: biochemical
T1 construct: VEGF-R2Δ50 contains residues 806-939 and 990-1171; made in house; host or cells: baculovirus/insect cells
Outline: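 Continuous PK/LDH-coupled spectrophotometric read (NADH loss at 340 nm) with 5–40 nM enzyme in 200 mM Hepes pH 7.5. Phosphorylated construct run at 1 mM ATP, 25 mM MgCl2, 5.1 mM poly(E4Y1); unphosphorylated at 3 mM ATP, 60 mM MgCl2 plus 2 mM MnCl2, 20 mM poly(E4Y1). Ki values derived from varied inhibitor concentrations.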

[2] = tested on: human umbilical vein endothelial cells (HUVEC); test: HUVEC proliferation assay (VEGF-stimulated, MTT); format: cell-based; settings: Homo sapiens
Outline: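 Proliferation measured by MTT reduction (4 h exposure, absorbance at 595) 72 hours after VEGF stimulation (final 6 ng/ml). Compound added to 24 h-starved HUVEC in F12K with 1% FBS and 0.1% final DMSO, one hour before the growth factor.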

[3] = molecular target: T2, FGF-R1 intracellular kinase domain (Homo sapiens, UniProt P11362, C488A/C584S/L457V); test: FGF-R spectrophotometric assay; format: biochemical; settings: @ 1 μM; read-out: FGF-P percent inhibition;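 further: coupled PK/LDH enzyme assay: ADP from kinase phosphoryl transfer drives NADH oxidation, read as absorbance decrease at 340 nm, with 2 mM ATP and poly(E4Y1) substrate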
T2 construct: starting from the endogenous methionine residue 456 to glutamate 766; made in house; host or cells: baculovirus expression system
Text: The intracellular kinase domain of human FGF-R1 was expressed using the baculovirus vector expression system starting from the endogenous methionine residue 456 to glutamate 766, according to the residue numbering system of Mohammadi et al., Mol. Cell.
The production of ADP from ATP that accompanies phosphoryl transfer was coupled to oxidation of NADH using phosphoenolpyruvate (PEP) and a system having pyruvate kinase (PK) and lactic dehydrogenase (LDH). The oxidation of NADH was monitored by following the decrease of absorbance at 340 nm (e340=6.22 cm^−1 mM^−1) using a Beckman DU 650 spectrophotometer. […] Assays were initiated with 5 to 40 nM of enzyme. Ki values were determined by measuring enzyme activity in the presence of varying concentrations of test compounds. The data were analyzed using Enzyme Kinetic and Kaleidagraph software.
The spectrophotometric assay was carried out as described above for VEGF-R2, except for the following changes in concentration: FGF-R=50 nM, ATP=2 mM, and poly(E4Y1)=15 mM.

LCK tyrosine kinase = molecular target: T3, LCK tyrosine kinase (Homo sapiens, UniProt P06239, C224D/P223M); test: LCK spectrophotometric assay; format: biochemical; settings: for Ki: read-out: LCK-P Ki; for inhibition at 1 µM: read-out: LCK-P percent inhibition;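 on all read-outs here: recombinant LCK kinase activity on poly(E4Y1), ADP formation coupled through PK/LDH to NADH oxidation, followed as absorbance loss at 340 nm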
T3 construct: starting from amino acid residue 223 to the end of the protein at residue 509; made in house; host or cells: insect cells

[4] = tested on: lung cancer cells (line MV522); test: Cancer cell proliferation (MV522) assay (MTT); format: cell-based; settings: MV522
Outline: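 Proliferation was read by MTT reduction 72 h after compound addition, in a 4-day protocol with no starvation step. Two thousand MV522 cells were seeded in RPMI1640 with 10% FBS and 2 mM glutamine and given 1 day to attach before dosing.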

[5] = molecular target: T4, unphosphorylated VEGF-R2Δ50 (FLVK) (Homo sapiens, UniProt P35968, DEL940-989/E990V); test: VEGF-R2 coupled spectrophotometric assay, unphosphorylated construct (FLVK); format: biochemical;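 further: Baculovirus-expressed cytosolic kinase domain, ADP formation linked via pyruvate kinase and lactate dehydrogenase to NADH oxidation, read as falling absorbance at 340 nm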
T4 construct: VEGF-R2Δ50 contains residues 806-939 and 990-1171; made in house; host or cells: baculovirus/insect cells

[6] = HUVEC, with albumin, read-out: Huvec + Albumin IC50
[7] = unphosphorylated VEGF-R2 construct
[8] = VEGF-stimulated HUVEC proliferation, read-out: HUVEC IC50

T3 sequence (P06239 223-509 P223M/C224D): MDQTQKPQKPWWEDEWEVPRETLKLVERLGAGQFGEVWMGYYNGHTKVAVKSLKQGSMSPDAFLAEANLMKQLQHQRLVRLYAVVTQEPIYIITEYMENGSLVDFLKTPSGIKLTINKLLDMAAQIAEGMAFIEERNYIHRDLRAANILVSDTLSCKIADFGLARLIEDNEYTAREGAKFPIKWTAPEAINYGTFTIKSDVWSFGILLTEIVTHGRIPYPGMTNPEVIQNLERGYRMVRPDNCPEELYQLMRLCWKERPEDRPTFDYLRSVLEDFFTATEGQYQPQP
T2 sequence (P11362 456-766 L457V/C488A/C584S): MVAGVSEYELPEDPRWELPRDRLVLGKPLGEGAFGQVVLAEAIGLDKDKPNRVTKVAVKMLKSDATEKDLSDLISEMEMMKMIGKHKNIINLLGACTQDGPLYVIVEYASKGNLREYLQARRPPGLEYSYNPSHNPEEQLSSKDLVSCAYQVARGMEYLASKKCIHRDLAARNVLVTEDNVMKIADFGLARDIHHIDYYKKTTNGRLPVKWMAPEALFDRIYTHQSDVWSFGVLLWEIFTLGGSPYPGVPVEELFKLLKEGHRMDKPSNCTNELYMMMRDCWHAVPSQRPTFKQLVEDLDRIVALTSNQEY
T1 sequence (P35968 with tags, fused parts or gaps DEL940-989/E990V limits assumed): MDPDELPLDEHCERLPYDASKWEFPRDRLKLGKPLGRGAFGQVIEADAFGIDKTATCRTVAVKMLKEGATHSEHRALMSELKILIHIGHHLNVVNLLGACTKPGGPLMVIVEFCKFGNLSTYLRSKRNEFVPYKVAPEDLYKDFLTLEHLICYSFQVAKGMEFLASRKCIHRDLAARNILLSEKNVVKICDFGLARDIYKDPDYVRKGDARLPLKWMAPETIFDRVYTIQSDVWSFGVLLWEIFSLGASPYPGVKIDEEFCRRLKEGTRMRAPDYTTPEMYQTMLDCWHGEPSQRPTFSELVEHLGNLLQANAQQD
T4 sequence (P35968 with tags, fused parts or gaps DEL940-989/E990V limits assumed): as above

Compound	Ki [1]	melting point	IC50 ([2]; HUVEC, read-out: HUVEC IC50)	IC50 [2, 6]	inhibition at 1 µM [3]	Ki (LCK tyrosine kinase)	IC50 [4]	Ki [5]	inhibition at 1 µM (LCK tyrosine kinase)	inhibition at 0.05 µM ([5]; @ 50 nM, read-out: FLVK percent inhibition)	Ki [5, 7]	IC50 [2, 8]	IC50 ([2]; HUVEC proliferation with albumin, read-out: Huvec + Albumin IC50)
Cc1cc(NC(=O)c2cccc(CCc3cc(Nc4ccccc4)n[nH]3)c2)ccc1C(C)C [Example G-3, N-(4-isopropyl-3-methylphenyl)-3-[2-(5-phenylamino-2H-pyrazol-3-yl)ethyl]benzamide]	0.197 nM	150 to 151 °C	9.8 nM	280 nM	91%	11.2 nM	> 10000 nM	–	–	–	–	–	–
Cc1cc(NC(=O)c2cccc(C3CC3c3cc(Nc4ccccc4)n[nH]3)c2)ccc1C(C)C (stereo not shown) [Example H-1, N-(4-Isopropyl-3-methyl-phenyl)-3-[2-(5-phenylamino-2-H-pyrazol-3-yl)cyclopropyl]-benzamide]	1.19 nM	–	27 nM	–	83%	–	> 10000 nM	0.19 nM	41%	–	–	–	–
Cc1cc(NC(=O)c2cccc(OCc3cncc4ccccc34)c2)ccc1C(C)C [Example K-1, N-(4-Isopropyl-3-methyl-phenyl)-3-(Isoquinolin-4-yl)methoxy-benzamide]	1.46 nM	–	40 nM	> 1000 nM	79%	59 nM	10000 nM	1.6 nM	–	–	–	–	–
O=C(Nc1cc(Cl)c(N2CCCC2)c(Cl)c1)c1ccc(F)c(OCc2cccnc2)c1 [Example R-11, N-(3,5-Dichloro-4-pyrrolidin-1-yl-phenyl)-4-fluoro-3-(pyridin-3-ylmethoxy)-benzamide]	–	163 to 167 °C	31 nM	–	30%	–	–	–	59%	59%	–	–	–
O=C(Nc1ccc(N2CCOCC2)c(C(F)(F)F)c1)c1ccc(F)c(OCc2cccnc2)c1 [Example R-12, 4-Fluoro-N-(4-morpholin-4-yl-3-trifluoromethyl-phenyl)-3-(pyridin-3-ylmethoxy)-benzamide]	–	160 to 161 °C	15 nM	–	62%	–	5900 nM	4.4 nM	45%	–	–	–	–
O=C(Nc1ccc(N2CCNCC2)c(C(F)(F)F)c1)c1ccc(F)c(OCc2cccnc2)c1 [Example R-13, 4-Fluoro-N-[4-(piperazin-1-yl)-3-trifluoromethylphenyl]-3-(pyridin-3-yl)methoxybenzamide]	–	123 to 131 °C	19 nM	120 nM	7%	–	1800 nM	16.5 nM	5%	–	–	–	–
Cl.O=C(Nc1ccc(N2CCOCC2)c(C(F)(F)F)c1)c1ccc(F)c(OCc2cncc3ccccc23)c1 [Example R-14, 4-Fluoro-N-(4-morpholin-4-yl-3-trifluoromethyl-phenyl)-3-(isoquinolin-4-ylmethoxy)-benzamide]	–	175 to 180 °C	14 nM	345 nM	96%	–	5700 nM	3.4 nM	87%	–	–	–	–
CC(C)(C)c1cc(C(=O)Nc2cccc(SCc3cccnc3)c2)ccc1O [Example W-2, 3-t-Butyl-4-hydroxy-N-[3-(pyridin-3-ylmethylsulfanyl)-phenyl]-benzamide]	–	95 to 100 °C	–	–	18%	–	–	–	19%	–	1.5 nM	120 nM	–
CC(C)(C)c1cc(C(=O)Nc2cccc(SCc3cncc4ccccc34)c2)ccc1O.Cl [Example W-3, 3-t-Butyl-4-hydroxy-N-[3-(isoquinolin-4-ylmethylsulfanyl)-phenyl]-benzamide]	–	205 to 210 °C	–	–	56%	–	–	–	65%	–	0.7 nM	220 nM	–
CC(C)(C)c1cc(C(=O)Nc2cccc(OCc3cncc(Br)c3)c2)ccc1O [Example X-1, N-[3-(5-Bromo-pyridin-3-ylmethoxy)-phenyl]-3-t-butyl-4-hydroxy-benzamide]	–	105 to 111 °C	–	–	28%	–	–	–	59%	–	1.5 nM	27 nM	330 nM
